Measured values from patent US7462600B2, “Macrolides” (Pfizer Inc, priority 2004, dated 2008).
Converted amounts (≈) assume the structure as drawn.

Legend:
Format in all cases: cell-based
[1] = test system: Streptococcus pyogenes 1079; test: MIC, microtiter broth dilution (NCCLS M100-S14), S. pyogenes 1079 (ermB); conditions: Streptococcus pyogenes 1079
How it was run: (§1)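 Steps: dissolve compound in DMSO to 40 mg/ml stock; dilute in broth across microtiter trays; inoculate strains; record MIC per NCCLS M100-S14.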

[2] = test system: Haemophilus influenzae 1218; test: MIC, microtiter broth dilution (NCCLS M100-S14), H. influenzae 1218 (susceptible); conditions: Haemophilus influenzae 1218
How it was run: as §1

[3] = test system: Streptococcus pneumoniae 1095; conditions: Streptococcus pneumoniae 1095; microtiter broth dilution
How it was run: as §1

[4] = test system: Streptococcus pneumoniae 1175; conditions: Streptococcus pneumoniae 1175; microtiter broth dilution
How it was run: as §1

[5] = test system: Streptococcus pneumoniae 1016; test: MIC, microtiter broth dilution (NCCLS M100-S14), S. pneumoniae 1016 (susceptible); conditions: Streptococcus pneumoniae 1016
How it was run: as §1

Compound | MIC S. pyogenes 1079 [1] [µg/mL] | MIC H. influenzae 1218 [2] [µg/mL] | MIC S. pneumo. 1095 [3] [µg/mL] | MIC S. pneumo. 1175 [4] [µg/mL] | MIC S. pneumo. 1016 [5] [µg/mL]
CCCC(c1ccnc2ccccc12)N1CC(N2C(=O)OC3(C)C(CC)OC(=O)C(C)C(=O)C(C)C(OC4OC(C)CC(N(C)C)C4O)C(C)(OC)CC(C)C(=O)C(C)C23)C1 (centres unmarked) [Example 1.64, 3-descladinosyl-11,12-dideoxy-6-O-methyl-3-oxo-12,11-(oxycarbonyl-(1-(1-(quinolin4-yl)-butyl)-azetidin-3-yl)-imino)-erythromycin A] | 1 (≈ 1.17 µM) | 1 (≈ 1.17 µM) | <0.06 | <0.06 | <0.06
CCCC(c1ccnc2ccccc12)N1CC(N2C(=O)OC3(C)C(CC)OC(=O)C(C)C(=O)C(C)C(OC4OC(C)CC(N(C)C)C4O)C(C)(OC)CC(C)C(=O)C(C)C23)C1 (centres unmarked) [Example 1.65, 3-descladinosyl-11,12-dideoxy-6-O-methyl-3-oxo-12,11-(oxycarbonyl-(1-(1-(quinolin4-yl)-butyl)-azetidin-3-yl)-imino)-erythromycin A] | 8 (≈ 9.4 µM) | 1 (≈ 1.17 µM) | <0.06 | <0.06 | <0.06
CCC1OC(=O)C(C)C(=O)C(C)C(OC2OC(C)CC(N(C)C)C2O)C(C)(OC)CC(C)C(=O)C(C)C2N(C3CN(C(c4ccccc4)c4ccncc4)C3)C(=O)OC12C (centres unmarked) [Example 1.69, 3-descladinosyl-11,12-dideoxy-6-O-methyl-3-oxo-12,11-(oxycarbonyl-(1-(phenyl-(pyridin-4-yl)-methyl)-azetidin-3-yl)-imino)erythromycin A] | 8 (≈ 9.58 µM) | 1 (≈ 1.2 µM) | <0.06 | <0.06 | <0.06
CCC1OC(=O)C(C)C(=O)C(C)C(OC2OC(C)CC(N(C)C)C2O)C(C)(OC)CC(C)C(=O)C(C)C2N(C3CN(Cc4ccc(OC)c5ncccc45)C3)C(=O)OC12C (centres unmarked) [Example 1.70, 3-descladinosyl-11,12-dideoxy-6-O-methyl-3-oxo-12,11-(oxycarbonyl-(1-(8-methoxyquinoline-5-methyl)-azetidin-3-yl)-imino)-erythromycin A] | 2 (≈ 2.38 µM) | 1 (≈ 1.19 µM) | <0.063 | <0.063 | <0.063
CCC1OC(=O)C(C)C(=O)C(C)C(OC2OC(C)CC(N(C)C)C2O)C(C)(OC)CC(C)C(=O)C(C)C2N(C3CN(Cc4c(OC)cnc5ccccc45)C3)C(=O)OC12C (centres unmarked) [Example 1.71, 3-descladinosyl-11,12-dideoxy-6-O-methyl-3-oxo-12,11-(oxycarbonyl-(1-(3-methoxyquinoline-4-methyl)-azetidin-3-yl)-imino)-erythromycin A] | <0.063 | 1 (≈ 1.19 µM) | <0.063 | <0.063 | <0.063
CCC1OC(=O)C(C)C(=O)C(C)C(OC2OC(C)CC(N(C)C)C2O)C(C)(OC)CC(C)C(=O)C(C)C2N(C3CN(Cc4c(OC)cnc5ncccc45)C3)C(=O)OC12C (centres unmarked) [Example 1.72, 3-descladinosyl-11,12-dideoxy-6-O-methyl-3-oxo-12,11-(oxycarbonyl-(1-(3-methoxy-1,8-naphthyridine-4-methyl)-azetidin-3-yl)-imino)-erythromycin A] | <0.063 | 1 (≈ 1.19 µM) | <0.063 | <0.063 | <0.063
CC[C@H]1OC(=O)[C@H](C)C(=O)[C@H](C)[C@@H](O[C@@H]2O[C@H](C)C[C@H](N(C)C)[C@H]2O)[C@](C)(OC)C[C@@H](C)C(=O)[C@H](C)[C@H]2N(C3CN(Cc4c(C#N)cnc5ccccc45)C3)C(=O)O[C@]12C [Example 1.73, 3-descladinosyl-11,12-dideoxy-6-O-methyl-3-oxo-12,11-(oxycarbonyl-(1-(quinoline-3-carbonitrile-4-methyl)-azetidin-3-yl)-imino)erythromycin A] | 0.125 (≈ 0.15 µM) | 2 (≈ 2.4 µM) | <0.063 | <0.063 | <0.063
CC[C@H]1OC(=O)[C@H](C)C(=O)[C@H](C)[C@@H](O[C@@H]2O[C@H](C)C[C@H](N(C)C)[C@H]2O)[C@](C)(OC)C[C@@H](C)C(=O)[C@H](C)[C@H]2N(C3CN(Cc4c(Br)cnc5nccnc45)C3)C(=O)O[C@]12C [Example 1.74, 3-descladinosyl-11,12-dideoxy-6-O-methyl-3-oxo-12,11-(oxycarbonyl-(1-(7-bromopyrido[3,2-b]pyrazine-8-methyl)-azetidin-3-yl)imino)-erythromycin A] | 0.5 (≈ 0.562 µM) | 1 (≈ 1.12 µM) | <0.063 | <0.063 | <0.063
CCC1OC(=O)C(C)C(=O)C(C)C(OC2OC(C)CC(N(C)C)C2O)C(C)(OC)CC(C)C(=O)C(C)C2N(C3CN(Cc4c(Br)cnc5ncccc45)C3)C(=O)OC12C (centres unmarked) [Example 1.75, 3-descladinosyl-11,12-dideoxy-6-O-methyl-3-oxo-12,11-(oxycarbonyl-(1-(3-bromo-1,8-naphthyridine-4-methyl)-azetidin-3-yl)-imino)-erythromycin A] | <0.063 | 1 (≈ 1.12 µM) | <0.063 | <0.063 | <0.063
CCC1OC(=O)C(C)C(=O)C(C)C(OC2OC(C)CC(N(C)C)C2O)C(C)(OC)CC(C)C(=O)C(C)C2N(C3CN(Cc4c(Cl)cnc5ncccc45)C3)C(=O)OC12C (centres unmarked) [Example 1.76, 3-descladinosyl-11,12-dideoxy-6-O-methyl-3-oxo-12,11-(oxycarbonyl-(1-(3-chloro-1,8-naphthyridine-4-methyl)-azetidin-3-yl)-imino)-erythromycin A] | 0.125 (≈ 0.148 µM) | 0.5 (≈ 0.592 µM) | <0.063 | <0.063 | <0.063
CCC1OC(=O)C(C)C(=O)C(C)C(OC2OC(C)CC(N(C)C)C2O)C(C)(OC)CC(C)C(=O)C(C)C2N(C3CN(Cc4ccncc4Br)C3)C(=O)OC12C (centres unmarked) [Example 1.77, 3-descladinosyl-11,12-dideoxy-6-O-methyl-3-oxo-12,11-(oxycarbonyl-(1-(3-bromopyridine-4-methyl)-azetidin-3-yl)-imino)-erythromycin A] | 1 (≈ 1.19 µM) | 0.5 (≈ 0.597 µM) | <0.063 | <0.063 | <0.063
CCC1OC(=O)C(C)C(=O)C(C)C(OC2OC(C)CC(N(C)C)C2O)C(C)(OC)CC(C)C(=O)C(C)C2N(C3CN(Cc4ccncc4F)C3)C(=O)OC12C (centres unmarked) [Example 1.78, 3-descladinosyl-11,12-dideoxy-6-O-methyl-3-oxo-12,11-(oxycarbonyl-(1-(3-fluoropyridine-4-methyl)-azetidin-3-yl)-imino)-erythromycin A] | 4 (≈ 5.15 µM) | 1 (≈ 1.29 µM) | <0.063 | <0.063 | <0.063
CCC1OC(=O)C(C)C(=O)C(C)C(OC2OC(C)CC(N(C)C)C2O)C(C)(OC)CC(C)C(=O)C(C)C2N(C3CN(Cc4ccncc4Cl)C3)C(=O)OC12C (centres unmarked) [Example 1.79, 3-descladinosyl-11,12-dideoxy-6-O-methyl-3-oxo-12,11-(oxycarbonyl-(1-(3-chloropyridine-4-methyl)-azetidin-3-yl)-imino)-erythromycin A] | 4 (≈ 5.04 µM) | 1 (≈ 1.26 µM) | <0.063 | <0.063 | <0.063
CCC1OC(=O)C(C)C(=O)C(C)C(OC2OC(C)CC(N(C)C)C2O)C(C)(OC)CC(C)C(=O)C(C)C2N(C3CN(C(COC)c4ccnc5ncccc45)C3)C(=O)OC12C (stereo not drawn) [Example 1.80, 3-descladinosyl-11,12-dideoxy-6-O-methyl-3-oxo-12,11-(oxycarbonyl-(1-(2-(methoxy)-1S-(1,8-napthyridin-4-yl)-ethyl)-azetidin-3-yl)-imino)-erythromycin A] | 16 (≈ 18.7 µM) | 4 (≈ 4.68 µM) | 1 (≈ 1.17 µM) | 0.125 (≈ 0.146 µM) | <0.063
CCC1OC(=O)C(C)C(=O)C(C)C(OC2OC(C)CC(N(C)C)C2O)C(C)(OC)CC(C)C(=O)C(C)C2N(C3CN(Cc4ccc(=O)n5ccccc45)C3)C(=O)OC12C (centres unmarked) [Example 1.82, 3-descladinosyl-11,12-dideoxy-6-O-methyl-3-oxo-12,11-(oxycarbonyl-(1-(4H-quinolizin-4-one-1-methyl)-azetidin-3-yl)-imino)-erythromycin A] | 4 (≈ 4.85 µM) | 0.5 (≈ 0.606 µM) | <0.063 | <0.063 | <0.063
CCC1OC(=O)C(C)C(=O)C(C)C(OC2OC(C)CC(N(C)C)C2O)C(C)(OC)CC(C)C(=O)C(C)C2N(C3CN(Cc4cccn5nccc45)C3)C(=O)OC12C (centres unmarked) [Example 1.83, 3-descladinosyl-11,12-dideoxy-6-O-methyl-3-oxo-12,11-(oxycarbonyl-(1-(H-pyrazolo[1,5-a]pyridine-4-methyl)-azetidin-3-yl)-imino)-erythromycin A] | 4 (≈ 5.01 µM) | 1 (≈ 1.25 µM) | <0.063 | <0.063 | <0.063
